Some test systems named below: LOX IMVI melanoma; A549 NSCLC; MOLT-4 leukemia; CAKI-1 renal; NCI-H23 lung; ACHN renal; K-562 leukemia; NCI-H522 lung; HOP-62 NSCLC; TK-10 renal; COLO 205 colon; SF-295 CNS; SF-268 CNS; HL-60(TB) leukemia; A498 renal; NCI-H226 lung; HCT-116 colon; SR leukemia.
Common to all, as to test: inhibition of tumour cell growth, NCI panel, 48 h

Among the data in PubChem BioAssay (NCI) are TGI values, retold here.

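48-hour exposure; five concentrations; linearly interpolated endpoints. TGI: total growth inhibition.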

Regarding `CCCCCCCc1cc(OC(=O)c2c(C)cc(OC)cc2O)cc(O)c1C(=O)O`, the TGI in the test with LOX IMVI melanoma was 48.7 µM; in the test on A549 NSCLC, 83.9 µM; with MOLT-4 leukemia, 88.3 µM; with CAKI-1 renal it was 43.4 µM; with NCI-H23 lung, 43.1 µM; in the test with ACHN renal it was 62.8 µM. In addition, the TGI in the test with K-562 leukemia is above 100 µM; in the test with NCI-H522 lung it was 48.3 µM; in the test on HOP-62 NSCLC, 35.2 µM; in the test with TK-10 renal, 90.2 µM; in the test on COLO 205 colon, 37.3 µM; in the test with SF-295 CNS it was 50 µM. Also, the TGI in the test on SF-268 CNS amounted to 45.9 µM; in the test with HL-60(TB) leukemia, 68.3 µM; with A498 renal, 38 µM.
Regarding `CCOc1ccc(NC(=O)C2=C(C)NC(C)=C(C(=O)Nc3ccc(OCC)cc3)C2c2ccc(O)c(OC)c2)cc1`, the TGI in the test on LOX IMVI melanoma, with A549 NSCLC, in the test with MOLT-4 leukemia, in the test on CAKI-1 renal, in the test on NCI-H23 lung and in the test on ACHN renal was above 100 µM each time. Further, the TGI in the test with K-562 leukemia was above 100 µM; with NCI-H522 lung, above 100 µM; with NCI-H226 lung, above 100 µM; in the test with HOP-62 NSCLC, 92.9 µM; in the test with TK-10 renal, above 100 µM; in the test on COLO 205 colon, above 100 µM. Further, the TGI in the test with SF-295 CNS was above 100 µM; in the test with SF-268 CNS, above 100 µM; with HL-60(TB) leukemia, above 100 µM; in the test with A498 renal, 66.7 µM.
Regarding `Cn1c2c(c3ccccc31)CCN(CCN1CCN(c3ccccc3)CC1)C2=O`, the TGI in the test on LOX IMVI melanoma, in the test on A549 NSCLC, with HCT-116 colon, in the test on MOLT-4 leukemia, with CAKI-1 renal and in the test on NCI-H23 lung was above 100 µM each time. The TGI was above 100 µM with ACHN renal; above 100 µM with K-562 leukemia; 92.9 µM with NCI-H522 lung; above 100 µM with TK-10 renal; above 100 µM with COLO 205 colon; above 100 µM in the test with SF-295 CNS. For the same compound, the TGI in the test on SF-268 CNS and with HL-60(TB) leukemia was above 100 µM each time.
`CC(=O)O[C@]12CCCCC1C1(O)C(O)CCCCC12` (some centres undefined): the TGI in the test on LOX IMVI melanoma, in the test on A549 NSCLC, in the test with HCT-116 colon, in the test with MOLT-4 leukemia, in the test with NCI-H23 lung and in the test with ACHN renal was above 100 µM each time. The TGI in the test on K-562 leukemia, in the test on NCI-H522 lung, in the test on NCI-H226 lung, in the test with HOP-62 NSCLC, in the test with TK-10 renal and in the test with COLO 205 colon was above 100 µM each time. For the same compound, the TGI with SF-295 CNS, with SF-268 CNS, in the test with HL-60(TB) leukemia and in the test on SR leukemia was above 100 µM throughout.
With `CCCOC(=O)C1CCC(=O)N1C(=O)C(C)Cl` (centres undefined), the TGI with LOX IMVI melanoma, in the test on A549 NSCLC, in the test with HCT-116 colon, with MOLT-4 leukemia, in the test on CAKI-1 renal and in the test with NCI-H23 lung was above 100 µM throughout. The TGI with ACHN renal, with K-562 leukemia, in the test with NCI-H522 lung, in the test on NCI-H226 lung, in the test with HOP-62 NSCLC and in the test on TK-10 renal was above 100 µM in each case. Further, the TGI with COLO 205 colon, in the test on SF-295 CNS, with SF-268 CNS, in the test on HL-60(TB) leukemia and in the test on A498 renal was above 100 µM in each case.
Turning to `N#CC(C(=O)/C(=N/NC(=O)c1ccccc1O)C(C#N)c1ccccc1)c1ccccc1` (centres undefined), the TGI in the test with LOX IMVI melanoma, in the test with A549 NSCLC, in the test on HCT-116 colon, in the test with NCI-H23 lung, in the test on ACHN renal and in the test with NCI-H226 lung was above 100 µM each time. In addition, the TGI in the test with HOP-62 NSCLC, with TK-10 renal, in the test on COLO 205 colon, in the test with SF-295 CNS, in the test on SF-268 CNS and in the test on A498 renal was above 100 µM in each case.
Consider `CN(C)CCC(O)(c1ccccc1)C(O)(CCN(C)C)c1ccccc1` (centres undefined), for which the TGI with A549 NSCLC, in the test on MOLT-4 leukemia, in the test on CAKI-1 renal, in the test on NCI-H23 lung, with ACHN renal and with K-562 leukemia was above 100 µM throughout. Further, the TGI in the test on NCI-H522 lung, in the test on HOP-62 NSCLC, in the test with TK-10 renal, in the test on COLO 205 colon, in the test on SF-295 CNS and in the test on SF-268 CNS was above 100 µM in each case. The compound further returned a TGI in the test with A498 renal above 100 µM.
As to `O=C1[C@@H]2C(c3ccc(Cl)cc3Cl)=NO[C@@H]2C(=O)N1c1ccc(Cc2ccc(N3C(=O)[C@H]4C(c5ccc(Cl)cc5Cl)=NO[C@H]4C3=O)cc2)cc1`, the TGI in the test with LOX IMVI melanoma, with A549 NSCLC, in the test with MOLT-4 leukemia, in the test with CAKI-1 renal, in the test with NCI-H23 lung and in the test with K-562 leukemia was above 100 µM each time. The TGI with NCI-H226 lung, with HOP-62 NSCLC, in the test with TK-10 renal, in the test on COLO 205 colon, in the test with SF-295 CNS and in the test with SF-268 CNS was above 100 µM in each case. Also, the TGI in the test with HL-60(TB) leukemia is 48.8 µM; with A498 renal it was above 100 µM.
Consider `CC1OC(n2ccc(=O)[nH]c2=O)C=C(OC(=O)c2ccccc2)C1=O` (centres undefined), for which the TGI in the test with LOX IMVI melanoma, in the test with A549 NSCLC, in the test with MOLT-4 leukemia, with CAKI-1 renal, in the test on NCI-H23 lung and with ACHN renal was above 100 µM throughout. For the same compound, the TGI with K-562 leukemia, in the test on HOP-62 NSCLC, in the test with TK-10 renal, in the test with COLO 205 colon, in the test on SF-295 CNS and in the test with HL-60(TB) leukemia was above 100 µM each time.
